Assay results as given in patent US20230023092A1, “TREATMENT OF DEPRESSION AND OTHER VARIOUS DISORDERS WITH PSILOCYBIN” (COMPASS […], priority 2019, published 2023).

System: healthy subjects
Assay: Scale of Social Responsibility (SSR)
Assay type: in vivo, human
Protocol: In some embodiments, the Scale of Social Responsibility (SSR) is utilized to evaluate the safety and/or efficacy of psilocybin. The SSR measures perceptions regarding the importance of ethics and social responsibility.
The Pictorial Empathy Test (PET), Reading the Mind in the Eyes Test (RMET), Scale of Social Responsibility (SSR), Social Value Orientation (SVO), and Toronto Empathy Questionnaire (TEQ) were performed. Table 20 summarizes the results of the mixed model for repeated measures (MMRM) analysis for each of the aforementioned social cognition panel scales measured on Day 7 and Day 84 after study drug administration.

[1] = Day 7, psilocybin 10 mg - placebo
[2] = Day 7, psilocybin 25 mg - 10 mg
[3] = Day 7, psilocybin 25 mg - placebo
[4] = Day 84, psilocybin 10 mg - placebo
[5] = Day 84, psilocybin 25 mg - 10 mg
[6] = Day 84, psilocybin 25 mg - placebo

SMILES: CN(C)CCc1c[nH]c2cccc(OP(=O)(O)O)c12 [Psilocybin, psilocybin]
- SSR compliance social rules change from baseline (LS mean) (Day 7, psilocybin 10 mg): −0.1
- SSR fullfilling expectations change from baseline (LS mean) (Day 7, psilocybin 10 mg): −0.1
- SSR global change from baseline (LS mean) (Day 7, psilocybin 10 mg): −2.0
- SSR compliance social rules change from baseline, LS mean difference [1]: 0.0
- SSR fullfilling expectations change from baseline, LS mean difference [1]: 0.1
- SSR global change from baseline, LS mean difference [1]: 1.2
- SSR compliance social rules change from baseline (LS mean) (Day 7, psilocybin 25 mg): 0.0
- SSR fullfilling expectations change from baseline (LS mean) (Day 7, psilocybin 25 mg): −0.0
- SSR global change from baseline (LS mean) (Day 7, psilocybin 25 mg): −0.3
- SSR compliance social rules change from baseline, LS mean difference [2]: 0.1
- SSR fullfilling expectations change from baseline, LS mean difference [2]: 0.1
- SSR global change from baseline, LS mean difference [2]: 1.6
- SSR compliance social rules change from baseline, LS mean difference [3]: 0.1
- SSR fullfilling expectations change from baseline, LS mean difference [3]: 0.2
- SSR global change from baseline, LS mean difference [3]: 2.8
- SSR compliance social rules change from baseline (LS mean) (Day 84, psilocybin 10 mg): −0.1
- SSR fullfilling expectations change from baseline (LS mean) (Day 84, psilocybin 10 mg): −0.2
- SSR global change from baseline (LS mean) (Day 84, psilocybin 10 mg): −1.8
- SSR compliance social rules change from baseline, LS mean difference [4]: −0.0
- SSR fullfilling expectations change from baseline, LS mean difference [4]: −0.1
- SSR global change from baseline, LS mean difference [4]: 0.3
- SSR compliance social rules change from baseline (LS mean) (Day 84, psilocybin 25 mg): 0.0
- SSR fullfilling expectations change from baseline (LS mean) (Day 84, psilocybin 25 mg): −0.0
- SSR global change from baseline (LS mean) (Day 84, psilocybin 25 mg): 0.1
- SSR compliance social rules change from baseline, LS mean difference [5]: 0.1
- SSR fullfilling expectations change from baseline, LS mean difference [5]: 0.2
- SSR global change from baseline, LS mean difference [5]: 1.8
- SSR compliance social rules change from baseline, LS mean difference [6]: 0.1
- SSR fullfilling expectations change from baseline, LS mean difference [6]: 0.0
- SSR global change from baseline, LS mean difference [6]: 2.2
